Assay [1] has as its system taste panelists. Description: Taste panel rating of sweetness and licorice taste of 5% sucrose solutions. Particulars: scale 0 to 10, no enhancer 5.0. In kind it is in vivo, human. Here is the method: A test compound, (2R,3R)-3-acetoxy-5,7,4′-trihydroxyflavanone (A01), was tested in comparison to naringenin for its sweetness enhancement of a 5% (w/w) aqueous solution of sucrose. Taste panelists were asked to taste the following 5% sucrose solutions in Henniez water and rate their sweetness on a scale from 0 to 10, and to rate the presence of any licorice taste in the sample on a scale from 0 to 10.
The test compound A01 was tested in comparison to other sweetness enhancers in a similar test to that set forth in Example 1. The comparative compounds are taxifolin 3-O-acetate (A02), and ampelopsin 3-O-acetate (A03).

Assay [2] concerns panelists. Nature of the assay: Sweetener replacement test: panel choice between beverages (rebaudioside M, sucralose). It counts as in vivo, human. Particulars: for Panelists (of 45) who selected the beverage with test compound: statistical equivalence. The source says:
In one test, 45 panelists were asked to select between a beverage sweetened with 450 ppm rebaudioside M and a beverage with 300 ppm rebaudioside M and 12 ppm test compound A01. Of the 45 panelists, 23 selected the former, and 22 selected the latter, which is a statistical equivalence. […] In another test, 45 panelists were asked to select between a beverage sweetened with 160 ppm sucralose and a beverage with 120 ppm sucralose and 12 ppm test compound A01. Of the 45 panelists, 22 selected the former, and 23 selected the latter, which is a statistical equivalence.

Where [3] appears, read: +20 ppm in 5% sucrose solution (Table 2).

Regarding `O=C1C[C@@H](c2ccc(O)cc2)Oc2cc(O)cc(O)c21` [naringenin, reference compound], in assay [1] (+50 ppm in 5% (w/w) sucrose solution in Henniez water), the “Sweetness (0-10)” value worked out at 5.8.

As to `CC(=O)OC1C(=O)c2c(O)cc(O)cc2OC1c1cc(O)c(O)c(O)c1` (stereo not drawn) [A03, ampelopsin 3-O-acetate, reference compound], the “Sweetness (0-10)” value in assay [1] (setting [3]) came to 5.1.

As for `CC(=O)O[C@H]1C(=O)c2c(O)cc(O)cc2O[C@@H]1c1ccc(O)cc1` [A01, (2R,3R)-3-acetoxy-5,7,4′-trihydroxyflavanone], the “Reduction in concentration of sucralose permitted” value in assay [2] (12 ppm test compound, 160 ppm to 120 ppm sucralose) stood at 25%. Moreover, the “Reduction in concentration of rebaudioside M permitted” value in assay [2] (12 ppm test compound, 450 ppm to 300 ppm rebaudioside M) is given as 33%. Further, the “Panelists (of 45) who selected the beverage with test compound” value in assay [2] (120 ppm sucralose + 12 ppm A01 versus 160 ppm sucralose) was 23; in assay [2] (300 ppm rebaudioside M + 12 ppm A01 versus 450 ppm rebaudioside M), 22. Besides, the “Sweetness (0-10)” value worked out at 7.0 in assay [1] (+5 ppm in 5% (w/w) sucrose solution in Henniez water), 8.0 in assay [1] (+10 ppm in 5% (w/w) sucrose solution in Henniez water) and 8.8 in assay [1] (setting [3]).

(Values after patent US12635718B2, “Flavanone derivatives and their use as sweetness enhancers” (Firmenich SA, priority 2019, dated 2026).)
